The test system of this test is microglia. Briefly: BMT with UBC-GFP bone marrow followed by PLX5622 chow: beMφ engraftment into the brain. The class given is in vivo, mice. The note with it: for GFP+ beMφ engraftment in the brain: 1 week recovery, 6 weeks standard chow. The text has this: Mice were γ-irradiated with a lethal dose of 1000 rad. Four hours post irradiation, mice were intravenously injected with 5×10^6 bone marrow cells. Mice were given water supplemented with trimethoprim-sulfamethoxazole for two weeks and monitored daily for the first 4 days. A lead shield was placed over the head during irradiation in some experiments, as indicated.
To determine transcriptional and morphological changes of microglia and beMφ to an insult, mice were given a peripheral LPS challenge. Mice were first irradiated and given BMT with UBC-GFP bone marrow. To target microglia, head shielding was applied during irradiation in some mice. After 1 week of recovery, mice were treated with PLX 5622 for 2 weeks to deplete the brain macrophage niche then placed on standard chow for 6 weeks. Mice were injected with 50 μg LPS or saline (i.p.). 6 hours later, brains were removed and macrophages sorted by MACS on CD11B beads as described above.
We utilized the Csf1r inhibitor PLX5622 in chow, to eliminate irradiation-damaged, yet still viable, microglia. Mice were given BMT with UBC-GFP bone marrow with or without head covering during irradiation, followed by 1 week of recovery, 2 weeks of chow containing PLX5622, and finally 6 weeks of recovery on standard chow.
Our third model (see Example 2) was designed to take advantage of the synergistic effect on engraftment we had observed with the combination of CNS irradiation and Csf1r deletion in microglia. Instead of Csf1r deletion using our genetic model, we utilized the Csf1r inhibitor PLX5622 in chow, to eliminate the irradiation-damaged, yet still viable, microglia. Mice were given BMT with UBC-GFP bone marrow with or without head covering during irradiation, followed by 1 week of recovery, 2 weeks of chow containing PLX5622, and finally 6 weeks of recovery on standard chow. […] Due to the robust level of engraftment in this model, we sorted GFP+ beMφ from whole body irradiated mice and GFP microglia from head covered mice for RNA-seq. Mice were injected i.p. with saline or LPS 6 hours prior to cell collection. Microglia and beMφ were FACS sorted from mice with or without head-covering, respectively, and then RNA-seq followed by differential expression analysis was performed (n=3 microglia samples, pooled from 3 total mice for each sample, and n=3 beMφ samples, pooled from 3 total mice for each sample; performed once).

“Also recorded” adds a separate entry of the source.

In the case of `COc1ncc(F)cc1CNc1ccc(Cc2c[nH]c3ncc(C)cc23)c(F)n1` [PLX5622], the “GFP+ beMφ engraftment in the brain” value (BMT with head covering during irradiation, 2 weeks PLX5622 chow) was “minimal GFP+ beMφ engraftment” and the “GFP+ beMφ engraftment in the brain” value (BMT with whole body irradiation, 2 weeks PLX5622 chow) is “robust engraftment of GFP+ beMφ; also recorded: robust engraftment of GFP+ beMϕ”. For the same compound, the “repopulation of the CNS with endogenous microglia” value (BMT with head covering during irradiation, 2 weeks PLX5622 chow, then 6 weeks standard chow) is on record as “effectively repopulated the CNS with endogenous microglia”. In addition, under “system of BMT and PLX5622 treatment for beMφ engraftment”, the “repopulation of microglia by beMφ” value is given as “substantial repopulation of microglia by beMϕ”. Besides, the “potentiation of engraftment of hematopoietic-derived macrophages into the brains of mice” value (used as part of a protocol that clears the microglial niche) is “can potentiate engraftment”.

For the origin of these results see US11679104B2, “Compositions and methods of enhancing the homing and/or engraftment of hematopoietic cells in the central nervous system” (Duke University, priority 2017, dated 2023).
